Key:
L 929 cells [1] = test: Radiosensitization of cells in hypoxic condition under gamma radiation (Table 1); assay type: cell-based; details: concentration 1 × 10^-4 M
Experimental: The biological and pharmacological activity of the compounds under examination was tested on cell cultures and under gamma radiations. […] These aqueous solutions were added to cell cultures containing from 50 to 60 L 929 cells per mm^2; nutrient solution RPM-1-1640 containing 3% calf serum. Contact between the cells and the compound under examination was continued for six hours under nitrogen and under air. Parts of the solutions during the contact with the drug were irradiated in gamma cell with 1000, 2000 and 3000 rad always using a control sample without the drug.

male mice = test: Acute toxicity test by oral and intravenous route on male mice (Table 4); assay type: in vivo; details: 14 days
Experimental: (§1) The acute toxicity test was carried out by oral and intravenous route on male mice, weighing 19-21 g, which were deprived of meal for 16 hrs before treatment. Oral administration was performed by a gastric probe at doses of 500, 750, 1000 and 2000 mg/kg respectively, of the compounds under examination in aqueous solution of Tween (R). The intravenous administrations was performed in the caudal vein at doses of 100 and 200 mg/kg in 0.9% sodium chloride solution. The administered volumes were 1 ml/20 g by oral route and 0.5 ml/20 g by intravenous route.
(§2) After administration the mice were kept under control for 14 days.

[2] = as above; assay type: in vivo; details: mouse, in vivo; oral, male mice
Experimental: as §1, §2

[3] = Reactivity with OH radicals, pulse irradiation (Table 3); details: KCNS 10^-4 M; pulse 50 nsec, dose 18 Gy; λ=500 nm
Text: (§3) For testing the reactivity with oxygen radicals, solutions of the compounds under examination in very pure water were submitted to irradiation by an electron flow in accordance with the following procedure:
The irradiated solution for measurement of reactivity with OH radicals contained KCNS 10^-4 M and increasing concentrations of the compounds under examination. The concentrations were 10^-6 and 6×10^-6for the first five compounds of Table 1, 10^-5 and 10^-4, 10^-3 M for the other eight compounds.
The water used for the tests was neutral and made absolutely pure by deionization and four distillations also in the presence of oxidizing agents (KMnO4).
The irradiation conditions were: pulse 50 nsec, dose 18 Gy.
Absorption was performed at λ=500 nm.

[4] = Reactivity with O2 radicals, pulsed electron beams (Table 3); details: potassium formiate solution saturated with O2; 12 MeV pulsed electron beams
Text: as §3
The O2 species was generated by irradiation of a […] solution of potassium formiate satured with O2 with 12 MeV pulsed electron beams.
The concentration of the O2 radical produced is depending from the irradiation dose (which is proportional to the length of the pulse) and was in any case in excess with respect to the concentration of the reacting substance.

L 929 cells [5] = test: Cytotoxicity on cell cultures (Table 2); details: 5 × 10^-5 M
Experimental: The biological and pharmacological activity of the compounds under examination was tested on cell cultures and under gamma radiations. Concentrations of 10^-6, 5×10^-6, 10^-5 and 10^-3 M of each compound were used. These aqueous solutions were added to cell cultures containing from 50 to 60 L 929 cells per mm^2; nutrient solution RPM-1-1640 containing 3% calf serum. Contact between the cells and the compound under examination was continued for six hours under nitrogen and under air. Parts of the solutions during the contact with the drug were irradiated in gamma cell with 1000, 2000 and 3000 rad always using a control sample without the drug.

Compound: ON=Cc1ccc(Br)s1 [Compound 13, 5-bromo-2-thiophenaldoxime]
- Radiosensitization Index (R.S.I.) (L 929 cells [1]): 1.65
- Death (dead/treated animals) (male mice; intravenous, 100 mg/kg): 0/5
- Death (dead/treated animals) (male mice; intravenous, 200 mg/kg): 0/5
- Death (dead/treated animals) (male mice; oral, 500 mg/kg): 0/5
- Death (dead/treated animals) (male mice; oral, 750 mg/kg): 0/5
- Death (dead/treated animals) (male mice; oral, 1000 mg/kg): 2/5
- Death (dead/treated animals) (male mice; oral, 2000 mg/kg): 3/5
- LD50 at 336 h [2]: 1800 mg/kg
- Reactivity with OH radicals measured as a speed constant (KOH·) [3]: 8e+09 M⁻¹ s⁻¹
- Reactivity with O2 radicals measured as a speed constant (KO2-·) [4]: 23000 M⁻¹ s⁻¹
- Cytotoxicity Index (number of cells) (L 929 cells [5]; culture time 0 hr, control 40): 43 number of cells
- Cytotoxicity Index (number of cells) (L 929 cells [5]; culture time 6 hr, control 62): 50 number of cells
- Cytotoxicity Index (number of cells) (L 929 cells [5]; culture time 12 hr, control 80): 70 number of cells
- Cytotoxicity Index (number of cells) (L 929 cells [5]; culture time 24 hr, control 166): 130 number of cells

Reference: patent US4767758A, “Pharmaceutical compositions containing thiophene compounds, and new thiophene compounds” (Consiglio Nazionale Delle Ricerche, priority 1984, dated 1988)
